Experimental data: patent EP4778922A1, “BICYCLIC COMPOUND, AND PREPARATION METHOD THEREFOR AND PHARMACEUTICAL USE THEREOF” (Shanghai Jeyou Pharmaceutical Co., Ltd., priority 2023, dated 2025)
Read-outs that look alike come from different tables or passages of the source.

Legend:
[1] = tested on: LNCaP cells; assay: Cell proliferation inhibition assay in LNCaP cells (0.2 nM DHT, CellTiter-Glo, 7 days); type: cell-based, human
Description: • 1. The human prostate cancer cell lines 22RV1 and LNCaP were purchased from ATCC. […] The cell concentration was adjusted to an appropriate concentration (determined based on the results of cell density optimization experiments), and the cells were seeded into a 96-well plate. A 100 µL cell suspension was added, resulting in 3000 cells per well. […] On the second day, for 22Rv1 cells, test compounds at different concentrations were added, and the cells were incubated at 37°C in a 5% CO2 incubator for 7 days; for LNCaP cells, test compounds at different concentrations were added first, and after 1 hour of treatment, 0.2 nM DHT was added. The cells were then incubated at 37°C in a 5% CO2 incubator for 7 days. • 4. After the incubation period, a volume of CellTiter-Glo detection reagent equal to the volume of the culture medium was added to each well. The plate was shaken and mixed thoroughly for 5 minutes, then incubated at room temperature for 10 minutes. Readings were taken using a PerkinElmer EnVision microplate reader. • 5.
The IC50 curve was fitted and the IC50 value was calculated using the software GraphPad Prism 8 with the calculation formula XY-analysis/Nonlinear regression (curve fit)/Dose response-Inhibition/log (inhibitor) vs. response-Variable slope (four parameters).

[2] = molecular target: T1, CYP2C19 (Homo sapiens, UniProt P33261); assay: CYP inhibition assay in human liver microsomes; type: in vitro ADME; settings: human liver microsomes, NADPH; read-out: CYPs 2C19 (IC50)
T1 construct: co-incubated with human liver microsomes; from tissue; host or cells: human liver microsomes
T1 sequence (P33261 whole entry): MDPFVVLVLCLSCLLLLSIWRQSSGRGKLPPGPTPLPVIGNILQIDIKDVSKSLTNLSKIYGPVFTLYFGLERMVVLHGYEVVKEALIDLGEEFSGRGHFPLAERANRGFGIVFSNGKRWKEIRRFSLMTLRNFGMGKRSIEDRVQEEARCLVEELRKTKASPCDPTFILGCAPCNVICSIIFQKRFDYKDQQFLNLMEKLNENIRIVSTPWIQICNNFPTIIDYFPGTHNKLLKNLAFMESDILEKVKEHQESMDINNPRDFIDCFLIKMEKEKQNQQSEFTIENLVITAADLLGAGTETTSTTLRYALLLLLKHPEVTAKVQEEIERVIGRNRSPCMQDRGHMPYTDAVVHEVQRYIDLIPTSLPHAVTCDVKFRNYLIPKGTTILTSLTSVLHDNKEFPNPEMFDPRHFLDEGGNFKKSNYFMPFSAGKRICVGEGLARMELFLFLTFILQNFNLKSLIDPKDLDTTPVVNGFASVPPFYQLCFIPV
Description: (§1) Test Example 3: CYP Inhibition Assay
(§2) An in vitro assay system was used to evaluate the effects of the compounds on the activities of several human liver microsomal cytochrome P450 (CYP) isozymes (CYP1A2, CYP2C9, CYP2D6, CYP3A4 (testosterone/midazolam), CYP2C19, and CYP2C8). Specific probe substrates for CYP450 isozymes were co-incubated with human liver microsomes and the compound at various concentrations (0, 0.0300, 0.100, 0.300, 1.00, 3.00, 10.0 µM). The reaction was initiated by adding the coenzyme NADPH. After the reaction was completed, the samples were processed, and the metabolites generated from the probe substrates were detected by liquid chromatography-tandem mass spectrometry (LC-MS/MS). Based on the resulting dose-response curves, the IC50 values of the test compounds for the probe substrate reactions catalyzed by each CYP isozyme were calculated.

[3] = molecular target: T2, CYP2C8 (Homo sapiens, UniProt P10632); assay: CYP inhibition assay in human liver microsomes; type: in vitro ADME; settings: human liver microsomes, NADPH; read-out: CYPs 2C8 (IC50)
T2 construct: co-incubated with human liver microsomes; from tissue; host or cells: human liver microsomes
T2 sequence (P10632 1-490): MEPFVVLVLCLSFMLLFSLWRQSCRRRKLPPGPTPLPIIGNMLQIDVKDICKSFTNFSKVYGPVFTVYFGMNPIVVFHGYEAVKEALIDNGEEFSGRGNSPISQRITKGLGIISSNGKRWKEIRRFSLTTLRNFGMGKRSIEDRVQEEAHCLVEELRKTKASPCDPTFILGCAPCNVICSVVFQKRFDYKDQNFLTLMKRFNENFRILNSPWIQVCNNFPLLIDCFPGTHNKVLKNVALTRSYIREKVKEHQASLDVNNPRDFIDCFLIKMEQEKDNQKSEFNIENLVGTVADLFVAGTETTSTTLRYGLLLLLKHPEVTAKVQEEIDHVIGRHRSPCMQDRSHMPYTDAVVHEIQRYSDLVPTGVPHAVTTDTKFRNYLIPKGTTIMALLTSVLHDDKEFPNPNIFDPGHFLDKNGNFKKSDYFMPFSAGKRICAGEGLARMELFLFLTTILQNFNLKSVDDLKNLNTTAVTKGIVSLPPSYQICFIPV
Description: as §1, §2

[4] = molecular target: T3, CYP3A4 (testosterone/midazolam) (Homo sapiens, UniProt P08684); assay: CYP inhibition assay in human liver microsomes; type: in vitro ADME
T3 construct: co-incubated with human liver microsomes; from tissue; host or cells: human liver microsomes
T3 sequence (P08684 whole entry): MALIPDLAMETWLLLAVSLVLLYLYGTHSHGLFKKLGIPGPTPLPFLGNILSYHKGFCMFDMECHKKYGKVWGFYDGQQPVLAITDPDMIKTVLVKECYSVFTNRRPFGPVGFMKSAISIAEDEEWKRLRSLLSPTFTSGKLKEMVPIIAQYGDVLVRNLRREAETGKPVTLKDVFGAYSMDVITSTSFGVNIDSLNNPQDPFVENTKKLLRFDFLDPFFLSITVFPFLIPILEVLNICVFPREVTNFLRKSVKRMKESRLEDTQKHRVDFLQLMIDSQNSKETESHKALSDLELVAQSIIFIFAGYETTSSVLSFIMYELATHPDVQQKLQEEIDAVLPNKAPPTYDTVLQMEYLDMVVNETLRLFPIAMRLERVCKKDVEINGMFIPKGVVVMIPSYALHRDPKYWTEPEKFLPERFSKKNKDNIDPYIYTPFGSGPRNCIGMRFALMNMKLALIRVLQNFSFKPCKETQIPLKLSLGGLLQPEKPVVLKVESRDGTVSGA
Description: as §1, §2

[5] = tested on: 22RV1 cells; assay: Cell proliferation inhibition assay in 22RV1 cells (CellTiter-Glo, 7 days); type: cell-based, human
How it was run: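 LNCaP and 22RV1 human prostate cancer cells, 3000 per well, exposed to graded compound for 7 days at 37°C, 5% CO2; LNCaP got 0.2 nM DHT 1 h after compound. Viability by CellTiter-Glo luminescence; IC50 from four-parameter variable-slope fit.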

[6] = Mouse pharmacokinetic test; type: in vivo, ICR mice; settings: for bioavailability: PO-30mpk vs IV-0.5mpk
How it was run: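 Male naive ICR mice (25–30 g, n=3 per route) received a single intravenous or oral dose, with feeding resumed 4 h post-dose. Blood was centrifuged at 4°C, and plasma was stored at -80°C until analysis.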

[7] = molecular target: T4, CYP2C9 (Homo sapiens, UniProt P11712); assay: CYP inhibition assay in human liver microsomes; type: in vitro ADME; settings: human liver microsomes, NADPH; read-out: CYPs 2C9 (IC50)
T4 construct: co-incubated with human liver microsomes; from tissue; host or cells: human liver microsomes
T4 sequence (P11712 whole entry): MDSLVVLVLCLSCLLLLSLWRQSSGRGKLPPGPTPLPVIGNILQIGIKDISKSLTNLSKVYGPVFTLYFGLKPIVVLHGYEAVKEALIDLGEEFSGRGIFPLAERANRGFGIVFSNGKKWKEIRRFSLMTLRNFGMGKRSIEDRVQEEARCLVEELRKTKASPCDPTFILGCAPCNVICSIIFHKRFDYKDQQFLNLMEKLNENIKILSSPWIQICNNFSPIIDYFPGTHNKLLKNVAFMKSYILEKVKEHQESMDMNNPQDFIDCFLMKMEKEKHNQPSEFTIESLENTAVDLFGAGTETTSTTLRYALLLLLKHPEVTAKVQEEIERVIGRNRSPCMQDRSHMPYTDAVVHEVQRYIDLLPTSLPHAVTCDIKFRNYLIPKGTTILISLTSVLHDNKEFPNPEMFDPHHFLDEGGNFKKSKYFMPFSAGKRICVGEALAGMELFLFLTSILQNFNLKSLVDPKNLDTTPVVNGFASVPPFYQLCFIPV
Description: as §1, §2

[8] = probe substrate midazolam, read-out: CYPs 3A4 (Midazolam) (IC50)
[9] = probe substrate testosterone, read-out: CYPs 3A4 (Testosterone) (IC50)
[10] = plasma, po, 30 mg/kg, PO-30mpk, read-out: Tmax
[11] = plasma, iv, 0.5 mg/kg, IV-0.5mpk

Row | SMILES | IC50 [2] [µM] | IC50 [3] [µM] | IC50 [4, 8] [µM] | IC50 [4, 9] [µM] | IC50 ([5]; Homo sapiens, 22Rv1, 168 h) [µM] | Cmax ([6]; plasma, po, 30 mg/kg, PO-30mpk) [ng/mL] | half-life ([6]; plasma, po, 30 mg/kg, PO-30mpk) [h] | Tmax [6, 10] [h] | AUC(0-inf) ([6]; plasma, po, 30 mg/kg, PO-30mpk) [µg·h/mL] | IC50 [7] [µM] | further results
1 | CC(C)(c1ccc(-c2cnc(OCc3ccnc(N4CC(S(=N)(=O)C5CC5)C4)n3)cn2)cc1)c1cc(Cl)c(OCCCl)c(C#N)c1 (single isomer, unassigned) [Compound 350A] | > 10 | > 10 | > 10 | > 10 |  |  |  |  |  |  | IC50 ([1]; Homo sapiens, LNCaP, 168 h): 0.055 µM
2 | CC(C)(c1ccc(-c2cnc(OCc3ccnc(N4CC5(CCS5(=N)=O)C4)n3)cn2)cc1)c1cc(Cl)c(OCCCl)c(C#N)c1 (single isomer, unassigned) [Compound 375A] | > 10 | > 10 | > 10 | > 10 | 0.089 | 109000 | 6.82 | 3.3 |  |  | IC50 [1]: 0.058 µM; AUCi ([6]; PO-30mpk, 30 mg/kg): 1307.079 µg·h/mL
3 | CC(C)(c1ccc(-c2cnc(OCc3ccnc(N4CC5(CCS5(=N)=O)C4)n3)cn2)cc1)c1cc(Cl)c(OCCCl)c(C#N)c1 (single isomer, unassigned) [Compound 375B] | > 10 | > 10 | > 10 | > 10 |  |  |  |  |  |  | IC50 [5]: 0.12 µM; IC50 ([1]; Homo sapiens, LNCaP, 168 h): 0.1 µM; AUCi ([6]; PO-30mpk, 30 mg/kg): 2620.877 µg·h/mL; Cmax (PO) ([6]; PO-30mpk, 30 mg/kg): 153425 ng/mL; T1/2 ([6]; PO-30mpk, 30 mg/kg): 8.67 h; Tmax ([6]; PO-30mpk, 30 mg/kg): 4.0 h
4 | CC(C)(c1ccc(-c2ccc(OCc3ccnc(N=S4(=O)CCCC4)n3)cc2)cc1)c1cc(Cl)c(OCCCl)c(C#N)c1 [Compound 7] |  | > 10 | > 10 | > 10 | 0.46 | 12300 | 5 | 3.3 | 161 | 7.3 | 
5 | CC(C)(c1ccc(-c2ccc(OCc3ccnc(N=S4(=O)CCCC4)n3)cc2)cc1)c1cnc2c(cnn2CCCl)c1 [Compound 46] | > 10 | > 10 | 4.5 | > 10 | 0.59 | 20700 | 3.58 | 4 | 220 | 6.7 | 
6 | CC(C)(c1ccc(-c2ccc(OC3CCN(c4ccnc(P(C)(C)=O)n4)CC3)cc2)cc1)c1cc(Cl)c(OCCCl)c(C#N)c1 [Compound 48] | > 10 | 1.7 | > 10 | > 10 | 0.44 | 13000 | 18 | 4 | 358 | 5.4 | 
7 | CC(C)(c1ccc(-c2ccc(OCc3ccnc(N4CC(S(C)(=O)=O)C4)n3)cc2)cc1)c1cc(Cl)c(OCCCl)c(C#N)c1 [Compound 53] | > 10 | > 10 | > 10 | > 10 | 0.28 | 13200 | 28.1 | 4 | 421 | > 10 | C0 ([6]; plasma, 0.5 mg/kg, IV-0.5mpk): 2100 ng/mL; clearance ([6]; plasma, 0.5 mg/kg, IV-0.5mpk): 0.59 mL/min/kg; bioavailability ([6]; plasma, 30 mg/kg): 68.4%; AUC(0-inf) [6, 11]: 10.2 µg·h/mL; half-life [6, 11]: 33.6 h
8 | CC(C)(c1ccc(-c2ccc(OCc3ccnc(N4CC5(CC(P(C)(C)=O)C5)C4)n3)cc2)cc1)c1cc(Cl)c(OCCCl)c(C#N)c1 [Compound 61] | > 10 | > 10 | > 10 | > 10 | 0.38 | 15600 | 7.6 | 6 | 242 | > 10 | 
9 | CC(C)(c1ccc(-c2ccc(OC3CCN(c4ccnc(N=S5(=O)CCCC5)n4)CC3)cc2)cc1)c1cc(Cl)c(OCCCl)c(C#N)c1 [Compound 65] | > 10 | 4.3 | > 10 | > 10 | 1.18 |  |  |  |  | > 10 | 
10 | CC(C)(c1ccc(-c2ccc(OCc3ccnc(N4CCC(S(C)(=O)=O)CC4)n3)cc2)cc1)c1cc(Cl)c(OCCCl)c(C#N)c1 [Compound 94] | > 10 | > 10 | > 10 | > 10 | 0.49 |  |  |  |  | > 10 | IC50 ([1]; Homo sapiens, LNCaP, 168 h): 0.79 µM
11 | CC(C)(c1ccc(-c2ccc(OCc3ccnc(N4CC5(CCS5(=O)=O)C4)n3)cc2)cc1)c1cc(Cl)c(OCCCl)c(C#N)c1 [Compound 176] | > 10 | > 10 | > 10 | > 10 | 0.39 | 21300 | 19.6 | 4 | 407 | > 10 | 
12 | CC(C)(c1ccc(-c2ccc(OCc3ccnc(N4CC5(CCS(=O)(=O)CC5)C4)n3)cc2)cc1)c1cc(Cl)c(OCCCl)c(C#N)c1 [Compound 177] | > 10 | > 10 | > 10 | > 10 | 0.21 | 17800 | 33.7 | 6 | 558 | > 10 | 
13 | CC(C)(c1ccc(-c2ccc(OCc3ccnc(N4CC(S(C)(=O)=O)C4)n3)nc2)cc1)c1cc(Cl)c(OCCCl)c(C#N)c1 [Compound 207] | > 10 | > 10 | > 10 | > 10 | 0.34 | 33900 | 9.8 | 3 | 446 | > 10 | C0 ([6]; plasma, 0.5 mg/kg, IV-0.5mpk): 1620 ng/mL; clearance ([6]; plasma, 0.5 mg/kg, IV-0.5mpk): 1.1 mL/min/kg; bioavailability ([6]; plasma, 30 mg/kg): 97.7%; AUC(0-inf) [6, 11]: 7.61 µg·h/mL; half-life [6, 11]: 16.1 h
14 | CC(C)(c1ccc(-c2ccc(OCc3ccnc(N4CC5(CCS(=N)(=O)CC5)C4)n3)cc2)cc1)c1cc(Cl)c(OCCCl)c(C#N)c1 [Compound 289] | > 10 | > 10 | > 10 | > 10 | 0.83 | 10000 | 10.7 | 4 | 240 | > 10 | 
15 | CC(C)(c1ccc(-c2ccc(OCC3CC(CN4CC(S(C)(=O)=O)C4)C3)cc2)cc1)c1cc(Cl)c(OCCCl)c(C#N)c1 (centres unmarked) [Compound 302] | > 10 | > 10 | > 10 | > 10 | 1.41 |  |  |  |  | > 10 | 
16 | CC(C)(c1ccc(-c2cnc(OCc3ccnc(N4CC(S(N)(=O)=O)C4)n3)cn2)cc1)c1cc(Cl)c(OCCCl)c(C#N)c1 [Compound 378] | > 10 | > 10 | > 10 | > 10 | 0.17 |  |  |  |  |  | IC50 ([1]; Homo sapiens, LNCaP, 168 h): 0.061 µM
17 | CC(C)(c1ccc(-c2ncc(OCc3cnc(-c4cnc(P(C)(C)=O)nc4)cn3)cn2)cc1)c1cc(Cl)c(OCCCl)c(C#N)c1 [Compound 403] | > 10 | 1.3 | > 10 | > 10 |  |  |  |  |  | > 10 | IC50 ([1]; Homo sapiens, LNCaP, 168 h): 0.26 µM
